Active and inactive are the calls of the source.
Experiments:
[1] = HepG2 cell cytotoxicity, dose response, cytotoxicity control, ATP luminescence, cherry-pick, activator set 2 (AID 1053143); type: functional, cell-based
cells [2] = type: functional, cell-based
cells [3] = type: functional, cell-based; remark: listed apart in the source
[4] = biological target: T1, Tyrosine-protein phosphatase non-receptor type 7 (Homo sapiens, UniProt P35236); assay: inhibitors of human HePTP phosphatase, […], biochemical, absorbance, leukemia target (AID 521); type: functional
T1 sequence (P35236 whole entry): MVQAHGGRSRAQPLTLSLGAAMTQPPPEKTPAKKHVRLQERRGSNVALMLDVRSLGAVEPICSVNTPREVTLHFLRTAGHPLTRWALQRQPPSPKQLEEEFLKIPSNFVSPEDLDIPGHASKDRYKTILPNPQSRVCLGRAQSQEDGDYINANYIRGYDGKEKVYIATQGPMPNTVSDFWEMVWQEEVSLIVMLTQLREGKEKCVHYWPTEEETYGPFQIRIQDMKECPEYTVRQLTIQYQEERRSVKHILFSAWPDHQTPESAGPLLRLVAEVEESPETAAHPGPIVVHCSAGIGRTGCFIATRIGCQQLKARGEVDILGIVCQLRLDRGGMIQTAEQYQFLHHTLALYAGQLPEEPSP

[5] = inhibitors of intracellular T. cruzi replication, confirmation, NIH3T3 host cells, beta-gal luminescence (AID 2044); type: functional, cell-based;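 note: intracellular parasites grown in NIH/3T3 mouse fibroblasts as host cells; luminescent beta-galactosidase reporter signal from transgenic T. cruzi replicating inside host cells; inhibitors lower the luminescence signal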
[6] = cytotoxicity toward NIH3T3 fibroblasts, dose response, counter-screen, cell-based, ATP luminescence, mouse fibroblasts (AID 2010); type: functional;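 note: cells exposed to compound for about 90 hours before reading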
cells [7] = assay: cells
[8] = inhibitors of clade B AD8 Env fusion, dose response, cell-based, cherry-pick (AID 652062); type: functional;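 note: luciferase signal from cell-cell fusion driven by HIV-1 clade B AD8 Env; potency is for inhibitors of fusion seen as a drop in luminescence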
[9] = ZM109 Env clade C HIV-1 fusion inhibitors, dose response, HeLa effector, CEM target cells, luciferase, cherry-pick (AID 652058); type: functional, cell-based
[10] = biological target: Eukaryotic translation initiation factor 4E (Mus musculus, UniProt P63073); assay: eIF4E–eIF4G protein interaction inhibitors, dose response, biochemical, TR-FRET (AID 855); type: functional;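 note: potency for disrupting eIF4E binding to eIF4GI seen as loss of FRET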
Eukaryotic translation initiation factor 4E, sequence (P63073 whole entry): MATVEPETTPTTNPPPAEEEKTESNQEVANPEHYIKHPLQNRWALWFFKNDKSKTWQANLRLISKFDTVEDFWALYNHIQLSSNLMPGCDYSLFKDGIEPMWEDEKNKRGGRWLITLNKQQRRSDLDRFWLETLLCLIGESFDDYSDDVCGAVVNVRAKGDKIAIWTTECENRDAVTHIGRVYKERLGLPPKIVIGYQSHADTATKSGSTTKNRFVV

Protein Tat = Protein Tat (Human immunodeficiency virus type 1 group M subtype B (isolate HXB2)(HIV-1), UniProt P04608); type: functional;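 note: tat binding to TAR RNA read out by fluorescence polarization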
Protein Tat, sequence (P04608 whole entry): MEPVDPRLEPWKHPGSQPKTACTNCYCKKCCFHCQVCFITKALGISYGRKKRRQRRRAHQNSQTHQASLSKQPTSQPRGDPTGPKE

[11] = biological target: Induced myeloid leukemia cell differentiation protein Mcl-1 (Homo sapiens, UniProt Q07820); type: functional
Induced myeloid leukemia cell differentiation protein Mcl-1, sequence (Q07820 whole entry): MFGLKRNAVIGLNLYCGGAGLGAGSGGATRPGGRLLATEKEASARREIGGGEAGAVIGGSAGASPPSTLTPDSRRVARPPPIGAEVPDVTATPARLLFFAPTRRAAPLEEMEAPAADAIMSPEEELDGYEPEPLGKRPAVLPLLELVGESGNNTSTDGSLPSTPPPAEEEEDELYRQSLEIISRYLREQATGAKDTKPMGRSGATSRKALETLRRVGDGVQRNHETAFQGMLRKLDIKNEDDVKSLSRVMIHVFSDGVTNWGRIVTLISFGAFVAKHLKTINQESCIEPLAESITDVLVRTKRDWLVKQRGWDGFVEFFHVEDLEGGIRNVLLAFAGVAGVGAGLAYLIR

[12] = biological target: T2, Dual specificity protein phosphatase 6 (Rattus norvegicus, UniProt Q64346); assay: MKP-3 phosphatase inhibitors, primary screen, biochemical, rat enzyme, in vitro (AID 425)
T2 sequence (Q64346 whole entry): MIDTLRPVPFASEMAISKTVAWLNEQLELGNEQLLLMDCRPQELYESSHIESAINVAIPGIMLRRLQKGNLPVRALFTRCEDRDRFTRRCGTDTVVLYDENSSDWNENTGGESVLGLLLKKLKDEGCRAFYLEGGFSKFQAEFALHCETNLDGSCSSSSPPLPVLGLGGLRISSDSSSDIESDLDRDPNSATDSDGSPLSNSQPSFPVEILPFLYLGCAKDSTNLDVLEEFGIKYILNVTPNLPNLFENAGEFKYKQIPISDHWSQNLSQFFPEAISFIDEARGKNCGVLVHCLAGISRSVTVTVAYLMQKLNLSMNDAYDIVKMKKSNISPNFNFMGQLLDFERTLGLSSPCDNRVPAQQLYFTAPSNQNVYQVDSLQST

[13] = Vero cell cytotoxicity, dose response, cytotoxicity control for Vif-APOBEC3G degradation inhibitor project, Vero cells (AID 1117358); type: functional; settings: Human immunodeficiency virus 1, Vero
[14] = biological target: T3, Oxysterols receptor LXR-beta (Homo sapiens, UniProt P55055); assay: LXR agonists, Gal4 luciferase reporter, dose response, counter-screen for ssDAF-12 agonist project, cell-based, luminescence, HEK293, S. stercoralis campaign (AID 720737); type: functional; settings: read-out: IC50 (the source's name)
T3 sequence (P55055 whole entry): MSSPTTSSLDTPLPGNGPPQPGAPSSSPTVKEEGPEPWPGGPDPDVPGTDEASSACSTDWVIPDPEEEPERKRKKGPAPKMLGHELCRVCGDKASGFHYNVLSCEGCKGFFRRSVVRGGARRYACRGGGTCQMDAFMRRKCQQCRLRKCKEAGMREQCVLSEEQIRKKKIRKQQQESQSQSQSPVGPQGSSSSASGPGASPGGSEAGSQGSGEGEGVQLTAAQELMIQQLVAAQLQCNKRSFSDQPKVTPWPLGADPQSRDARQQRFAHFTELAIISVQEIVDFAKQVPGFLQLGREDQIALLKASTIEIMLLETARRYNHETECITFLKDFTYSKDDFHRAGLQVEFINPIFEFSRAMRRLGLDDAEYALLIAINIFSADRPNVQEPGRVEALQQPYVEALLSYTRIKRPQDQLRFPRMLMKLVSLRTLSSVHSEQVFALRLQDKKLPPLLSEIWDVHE

[15] = Luminescence-based cell-based high throughput dose response assay to identify activators of the DAF-12 from the parasite S. stercoralis (ssDAF-12).; type: functional
[16] = Luminescence Cell-Based Dose Response HTS to Identify Activators of Luciferase Translation or Activity in H4 […] Cells. [Related pubchem assays: 1829 (Project Summary), 1814 (Primary HTS)]; type: functional
[17] = Luminescence Cell-Based Dose Response to Identify Activators of Luciferase Translation or Activity in H4-C Neuroglioblastoma Cells. [Related pubchem assays: 1829 (Project Summary), 1814 (Primary HTS)]; type: functional
[18] = Luminescence Cell-Based Dose Response to Identify Activators of 5'UTR Stem-Loop Driven Prion Protein mRNA Translation in H4-C Neuroglioblastoma Cells. [Related pubchem assays: 1829 (Project Summary), 1814 (Primary HTS)]; type: functional
[19] = Luminescence Cell-Based Dose Confirmation to Identify Activators of 5'UTR Stem-Loop Driven Alpha-Synuclein mRNA Translation in H4 Neuroglioblastoma Cells. [Related pubchem assays: 1829 (Project Summary), 1814 (Primary HTS)]; type: functional
INS1 = assay: beta cell apoptosis inhibitors, cytokine rescue, dose response, luminescence, retest (AID 449756); type: functional, cell-based; settings: Rattus norvegicus;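 note: cell death triggered by IL-1 beta plus TNF-alpha plus IFN-gamma mixture; protective hits raise ATP signal compared with cytokine alone wells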
[20] = HepG2 cell cytotoxicity, dose response, cytotoxicity control for Shn3 inhibitor project, CellTiter-Glo, cherry-picked (AID 624134); type: functional, cell-based
Protein Wnt-3a = Protein Wnt-3a (Mus musculus, UniProt P27467); assay: Wnt3a-driven reporter signaling inhibition, dose response, selectivity assay for Gli-SUFU antagonist project, Wnt-LIGHT cells, luminescence (AID 651570); type: functional; settings: read-out: IC50_Mean;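 note: Wnt-LIGHT reporter cells stimulated with conditioned medium from Wnt3a-producing cells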
Protein Wnt-3a, sequence (P27467 whole entry, the tested form may be a part): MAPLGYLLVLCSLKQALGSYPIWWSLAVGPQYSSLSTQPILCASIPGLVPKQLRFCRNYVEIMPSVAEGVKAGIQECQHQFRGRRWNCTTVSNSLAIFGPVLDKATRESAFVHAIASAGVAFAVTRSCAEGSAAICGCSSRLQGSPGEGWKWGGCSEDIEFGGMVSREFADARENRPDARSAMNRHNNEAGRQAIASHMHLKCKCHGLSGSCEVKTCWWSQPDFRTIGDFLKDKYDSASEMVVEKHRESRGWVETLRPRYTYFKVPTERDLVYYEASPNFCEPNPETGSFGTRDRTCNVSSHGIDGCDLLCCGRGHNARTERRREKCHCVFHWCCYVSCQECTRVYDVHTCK

[21] = inhibitors of HIV Env-driven cell fusion, dose response, cherry-pick (AID 652057); type: functional, cell-based
[22] = CEM21 cell cytotoxicity, dose response, cytotoxicity control, plate reader, dry powder (AID 687026); type: functional, cell-based
[23] = control 3'UTR Renilla luciferase suppression, dose response, counter-screen for Shn3 inhibitor project, cell-based, Clone20-Shn3RL, cherry-picked (AID 624133); type: functional
[24] = off-target signal loss in HeLa-CEM21 co-culture – HeLa F-luc CTL cells, cherry-picked, counter-screen for HIV-1 Env fusion inhibitor project, dose response (AID 652040); type: functional, cell-based;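 note: potency for signal decrease marking cytotoxic or nonspecific inhibition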
[25] = Shn3 3'UTR reporter inhibitors, dose response, cell-based, Clone20 osteoblasts, firefly luciferase, cherry-picked (AID 624132); type: functional;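 note: firefly luciferase luminescence from reporter carrying the Shn3 3'UTR in osteoblasts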

For `COCCNC(=O)c1cc(-c2cccs2)on1`, the AC50 [1] was 26 µM (active), the EC50 (cells [2]) was > 350 µM (not active) and the EC50 (cells [3]) was 70.8 µM (active).

With `Clc1ccccc1Cn1nnc2c(NCCN3CCOCC3)ncnc21` the IC50 [4] was > 100 µM (not active).

In the case of `O=C(NCC(c1cccnc1)N1CCN(c2ccccc2F)CC1)OCc1ccccc1` (stereo not drawn), the EC50 [5] is reported as < 0.1 µM (active), the EC50 [6] is reported as > 60 µM (not active) and the EC50 (cells [7]) is reported as 0.071 µM (active).

With `COc1ccccc1Oc1ccc(S(=O)(=O)NCc2ccccn2)cc1` the IC50 [4] was > 100 µM (not active), the AC50 [8] was 14.8 µM (active) and the AC50 [9] was 25.1 µM (active).

In the case of `CCOC(=O)C1CCN(C(=O)Nc2ccc3nc(-c4ccco4)c(-c4ccco4)nc3c2)CC1`, the IC50 [10] is reported as 21.2 µM (inactive), the IC50 (Protein Tat) is reported as 2.01 µM (inconclusive) and the IC50 [11] is reported as 1.46 µM (active). The IC50 [12] was > 10 µM (not active).

In the case of `CCOc1c(OC)cccc1C1CC(=O)Nc2cc3c(cc21)OCCO3` (stereo not drawn), the CC50 [13] is reported as > 40 µM (active).

For `Cc1nn(CC(=O)OC(C)C(=O)Nc2ccccc2[N+](=O)[O-])c(C)c1[N+](=O)[O-]` (stereo not drawn), the EC50 [14] was > 67.5 µM (inactive) and the IC50 [15] was > 67.5 µM (inactive).

With `CCOC(=O)c1c(C)[nH]c(N=Nc2ccc(C)cc2)c1C` the EC50 [16] was < 0.1 µM (active), the EC50 [17] was 0.3 µM (active) and the EC50 [18] was 0.305 µM (active). For the same compound, the EC50 [19] was 0.387 µM (active).

For `COc1ccc(CC(=O)Nc2cccc(S(=O)(=O)N3CCCCCC3)c2)cc1OC`, the AC50 (INS1) was 6.12 µM (active), the AC50 [20] was 2.12 µM (active) and the IC50 (Protein Wnt-3a) was 1.73 µM (active). The AC50 [21] was 7.05 µM (active), the AC50 [22] was > 70 µM (inactive) and the AC50 [8] was 3.47 µM (active). For the same compound, the AC50 [23] was 30 µM (active), the AC50 [24] was > 70 µM (inactive) and the AC50 [25] was 2.27 µM (active).

For `O=C(C1CCCN(Cc2ccc(Cl)cc2)C1)N1CCCCC1` (stereo not drawn), the EC50 [5] was < 0.1 µM (active), the EC50 [6] was > 30 µM (not active) and the EC50 (cells [7]) was 0.055 µM (active).

Reference: ChEMBL document CHEMBL1201862, “PubChem BioAssay data set” (2004)
